Measurements: patent publication US8431595B2, “Furanopyridine cannabinoid compounds and related methods of use” (The University of Tennessee Research Foundation, priority 2009, dated 2013)

System: glioblastoma brain cancer cell line LN-229
Experiment: Cytotoxicity assay (CCK8 viability)
Assay type: cell-based
Settings: Homo sapiens, LN-229 cells, 48 hrs
Experimental: Cytoxocity assay: Cells are seeded on a 96 well polystyrene plate in full serum media at a density of 75,000 cells per milliliter, 100 μL per well. Plates are incubated at 37° C. and 5% CO2 for 24 hours to allow cell attachment. Drug solutions are prepared in DMSO at 100× concentration and mixed 1:100 in 1% FBS media to yield the desired concentration. Drug-media mixtures are vortexed immediately prior to administration to cells. […] of Cell Counting Kit 8 (CCK8, Dojindo# CK04-11) is added to each well to colormetrically assess viability. After 2-4 hours of incubation with the CCK8 dye, absorbance is read at 450 nm by a BioTek Synergy 2 plate reader.
The cytotoxicity of selected compounds against the glioblastoma brain cancer cell line LN-229 is depicted in Table 1.

CCCCCCC(C)(C)c1cc(O)c2c(-c3ccccc3)coc2n1 [Compound 4c, 6-(2-Methyloctan-2-yl)-3-phenylfuro[2,3-b]pyridin-4-ol]
EC50: 33.6 µM
